Reference: PubChem BioAssay AID2060490 (Molecular Pharmacology Branch, DTP, NCI, 2025)

System: 885512-296-R-J2-PDC complex spheroid viability
Experiment: Anticancer human tumor 885512-296-R-J2-PDC patient-derived breast carcinoma cell line growth inhibition [GQUAD]
Settings: for IC50: curve of first compound; for viability, T/C: stronger effect = lower value
Procedure, shortened: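 Viability of tumor cells grown as complex spheroids with endothelial and stromal cells, exposed to drug combinations. Top concentration at or near clinical Cmax (else 10 microM), diluted in half-log increments.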

[1] = second compound 0.0316 µM, first compound 0.0316 µM
[2] = second compound 0.0316 µM, first compound 0.1 µM
[3] = second compound 0.0316 µM, first compound 0.316 µM
[4] = second compound 0.0316 µM, first compound 1 µM
[5] = second compound 0.0316 µM, first compound 3.16 µM
[6] = second compound 0.0316 µM, first compound 10 µM
[7] = second compound 0.1 µM, first compound 0.0316 µM
[8] = second compound 0.1 µM, first compound 0.1 µM
[9] = second compound 0.1 µM, first compound 0.316 µM
[10] = second compound 0.1 µM, first compound 1 µM
[11] = second compound 0.1 µM, first compound 3.16 µM
[12] = second compound 0.1 µM, first compound 10 µM
[13] = second compound 0.316 µM, first compound 0.0316 µM
[14] = second compound 0.316 µM, first compound 0.1 µM
[15] = second compound 0.316 µM, first compound 0.316 µM
[16] = second compound 0.316 µM, first compound 1 µM
[17] = second compound 0.316 µM, first compound 3.16 µM
[18] = second compound 0.316 µM, first compound 10 µM
[19] = second compound 1 µM, first compound 0.0316 µM
[20] = second compound 1 µM, first compound 0.1 µM
[21] = second compound 1 µM, first compound 0.316 µM
[22] = second compound 1 µM, first compound 1 µM
[23] = second compound 1 µM, first compound 3.16 µM
[24] = second compound 1 µM, first compound 10 µM
[25] = second compound 3.16 µM, first compound 0.0316 µM
[26] = second compound 3.16 µM, first compound 0.1 µM
[27] = second compound 3.16 µM, first compound 0.316 µM
[28] = second compound 3.16 µM, first compound 1 µM
[29] = second compound 3.16 µM, first compound 3.16 µM
[30] = second compound 3.16 µM, first compound 10 µM
[31] = second compound 10 µM, first compound 0.0316 µM
[32] = second compound 10 µM, first compound 0.1 µM
[33] = second compound 10 µM, first compound 0.316 µM
[34] = second compound 10 µM, first compound 1 µM
[35] = second compound 10 µM, first compound 3.16 µM
[36] = second compound 10 µM, first compound 10 µM
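Further: spheroids exposed to the compounds for one week.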
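Wherever viability, T/C is given: percent of tumor spheroid viability relative to DMSO vehicle control wells.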

`C#Cc1c(F)ccc2cc(O)cc(-c3ncc4c(N5CC6CCC(C5)N6)nc(OCC56CCCN5CC(F)C6)nc4c3F)c12` (stereo unspecified) + CN(C)c1ccc(Nc2c3ccc(NC(=O)CCN4CCCC4)cc3nc3cc(NC(=O)CCN4CCCC4)ccc23)cc1 was tested, and the IC50 (second compound 0.0316 µM) was > 10 µM, the IC50 (second compound 0.1 µM) was > 10 µM and the IC50 (second compound 0.316 µM) was > 10 µM. The IC50 (second compound 1 µM) was > 10 µM, the IC50 (second compound 3.16 µM) was 7.98 µM and the IC50 (second compound 10 µM) was < 0.0316 µM. The viability, T/C [1] was 108%, the viability, T/C [2] was 95.7% and the viability, T/C [3] was 105%. The viability, T/C [4] was 96.8%, the viability, T/C [5] was 106% and the viability, T/C [6] was 87.6%. It also gave a viability, T/C [7] of 110%, a viability, T/C [8] of 86.5% and a viability, T/C [9] of 99.8%. The viability, T/C [10] was 98.4%, the viability, T/C [11] was 89% and the viability, T/C [12] was 85.4%. It also gave a viability, T/C [13] of 105%, a viability, T/C [14] of 99.3% and a viability, T/C [15] of 96.6%. It also gave a viability, T/C [16] of 89.2%, a viability, T/C [17] of 91.4% and a viability, T/C [18] of 87.5%. It also gave a viability, T/C [19] of 88.9%, a viability, T/C [20] of 97.7% and a viability, T/C [21] of 99%. For the same compound, the viability, T/C [22] was 102%, the viability, T/C [23] was 94.5% and the viability, T/C [24] was 104%. The viability, T/C [25] was 95.3%, the viability, T/C [26] was 106% and the viability, T/C [27] was 97.2%. For the same compound, the viability, T/C [28] was 89.4%, the viability, T/C [29] was 86.1% and the viability, T/C [30] was 41.2%. The viability, T/C [31] was 21.5%, the viability, T/C [32] was 15.8% and the viability, T/C [33] was 18.9%. The viability, T/C [34] was 13.7%, the viability, T/C [35] was 13.9% and the viability, T/C [36] was 1.6%.
For `CC(=O)O[C@H]1C(=O)[C@@]2(C)[C@H]([C@H](OC(=O)c3ccccc3)[C@]3(O)C[C@H](OC(=O)[C@H](O)[C@@H](NC(=O)c4ccccc4)c4ccccc4)C(C)=C1C3(C)C)[C@]1(OC(C)=O)CO[C@@H]1C[C@@H]2O` + CN(C)c1ccc(Nc2c3ccc(NC(=O)CCN4CCCC4)cc3nc3cc(NC(=O)CCN4CCCC4)ccc23)cc1, the IC50 (second compound 0.0316 µM) was < 0.0316 µM, the IC50 (second compound 0.1 µM) was < 0.0316 µM and the IC50 (second compound 0.316 µM) was < 0.0316 µM. For the same compound, the IC50 (second compound 1 µM) was < 0.0316 µM, the IC50 (second compound 3.16 µM) was < 0.0316 µM and the IC50 (second compound 10 µM) was < 0.0316 µM. The viability, T/C [1] was 7.7%, the viability, T/C [2] was 3.78% and the viability, T/C [3] was 3.71%. For the same compound, the viability, T/C [4] was 2.86%, the viability, T/C [5] was 3.18% and the viability, T/C [6] was 3.65%. For the same compound, the viability, T/C [7] was 6.67%, the viability, T/C [8] was 3.1% and the viability, T/C [9] was 3.16%. For the same compound, the viability, T/C [10] was 4.15%, the viability, T/C [11] was 3.73% and the viability, T/C [12] was 3.82%. The viability, T/C [13] was 8.31%, the viability, T/C [14] was 4.86% and the viability, T/C [15] was 3.98%. It also gave a viability, T/C [16] of 3.68%, a viability, T/C [17] of 3.77% and a viability, T/C [18] of 3.72%. For the same compound, the viability, T/C [19] was 10.4%, the viability, T/C [20] was 4.09% and the viability, T/C [21] was 3.56%. The viability, T/C [22] was 3.3%, the viability, T/C [23] was 3.31% and the viability, T/C [24] was 3.95%. The viability, T/C [25] was 5.71%, the viability, T/C [26] was 3.67% and the viability, T/C [27] was 3.71%. For the same compound, the viability, T/C [28] was 3.88%, the viability, T/C [29] was 5.32% and the viability, T/C [30] was 5.08%. For the same compound, the viability, T/C [31] was 6.02%, the viability, T/C [32] was 4.19% and the viability, T/C [33] was 2.67%. The viability, T/C [34] was 4.93%, the viability, T/C [35] was 3.01% and the viability, T/C [36] was 3.27%.
`CCCS(=O)(=O)Nc1ccc(F)c(C(=O)c2c[nH]c3ncc(-c4ccc(Cl)cc4)cc23)c1F` + CN(C)c1ccc(Nc2c3ccc(NC(=O)CCN4CCCC4)cc3nc3cc(NC(=O)CCN4CCCC4)ccc23)cc1 showed an IC50 (second compound 0.0316 µM) of 8.18 µM, an IC50 (second compound 0.1 µM) of 7.89 µM and an IC50 (second compound 0.316 µM) of 8.45 µM. For the same compound, the IC50 (second compound 1 µM) was 6.7 µM, the IC50 (second compound 3.16 µM) was 3.75 µM and the IC50 (second compound 10 µM) was < 0.0316 µM. For the same compound, the viability, T/C [1] was 105%, the viability, T/C [2] was 90% and the viability, T/C [3] was 109%. The viability, T/C [4] was 104%, the viability, T/C [5] was 106% and the viability, T/C [6] was 38.9%. It also gave a viability, T/C [7] of 101%, a viability, T/C [8] of 119% and a viability, T/C [9] of 124%. For the same compound, the viability, T/C [10] was 117%, the viability, T/C [11] was 89% and the viability, T/C [12] was 39.8%. The viability, T/C [13] was 118%, the viability, T/C [14] was 102% and the viability, T/C [15] was 111%. It also gave a viability, T/C [16] of 104%, a viability, T/C [17] of 104% and a viability, T/C [18] of 40.7%. For the same compound, the viability, T/C [19] was 95%, the viability, T/C [20] was 102% and the viability, T/C [21] was 103%. It also gave a viability, T/C [22] of 94.1%, a viability, T/C [23] of 119% and a viability, T/C [24] of 21.9%. For the same compound, the viability, T/C [25] was 117%, the viability, T/C [26] was 104% and the viability, T/C [27] was 126%. For the same compound, the viability, T/C [28] was 111%, the viability, T/C [29] was 57.6% and the viability, T/C [30] was 6.03%. It also gave a viability, T/C [31] of 17.6%, a viability, T/C [32] of 16.4% and a viability, T/C [33] of 15.7%. The viability, T/C [34] was 14.2%, the viability, T/C [35] was 8.35% and the viability, T/C [36] was 1.3%.
